The text below walks through data of patent publication US9837801B2, “Gas-insulated medium or high-voltage electrical apparatus including carbon dioxide, oxygen, and heptafluoro-isobutyronitrile” (Alstom Technology Ltd., priority 2013, dated 2017).

The data set can be described thus: Toxicity (LC50, lethal concentration 50%). It is filed as in vivo. The text has this:
In addition, […], toxicity is further reduced by […], which classifies it in the field of gases considered to be “practically non-toxic” (toxicity classification 5, according to the Hodge and Sterner toxicity scale).

In the case of `N#CC(F)(C(F)(F)F)C(F)(F)F` [Heptafluoroisobutyronitrile, 2,3,3,3-tetrafluoro-2-trifluoromethyl propanenitrile], the “specific toxicity for humans” value (humans) is reported as “no specific toxicity”. The “LC50 (lethal concentration, 50%)” value (pure heptafluoroisobutyronitrile) is “greater than 15,000 ppm”.
